# Assay results: US12582720B2, “Compound for preventing or treating lipid metabolism-related diseases” (Fudan University, priority 2020, dated 2026)
# How the values were obtained:
# db/db mice = experiment: Effect of the compound on db/db mouse; type: in vivo
# Text: Experimental animals: nineteen-week-old db/db male mice (C57BL/6J-Lepr^db/Lepr^db) were obtained from Shanghai Model Organisms Co., Ltd., and acclimatized for at least 1 week before experiments. The mice had ad libitum access to standard chow and water.
# Normal control: The C57BL/6 male mice fed on standard irradiated chow diet (Shuyishuer Inc. cat. no. D12450J) from Changzhou Shuyishuer Biotechnology Co., Ltd. (Shuyishuer Inc.) were used as the normal control.
# (§1) Mice were randomly divided into 7 groups, wherein 8 mice in each group, and the mice in each group were subjected to intraperitoneal injection to administer: (1) only vehicle (no DMSO) group: 0% DMSO+39% PEG300 (Selleck, cat. no. S6704)+5% Tween-80 (Selleck, cat. no. S6702)+56% distilled water, (2) DMSO group: 1% DMSO+39% PEG300+5% Tween-80+55% H2O (DMSO vehicle), (3) C3 group: Compound 3A was in DMSO vehicle, (4) C4 group: Compound 4A in DMSO vehicle, (5) SIII group: Sudan III DMSO vehicle, (6) GW5074 group: Compound A1 in DMSO vehicle, (7) DP group: Compound A5 in DMSO vehicle. For groups (3)-(7), the compound (30 mg/kg, administration volume 150 μL) was administered through intraperitoneally injection for consecutive 2 weeks, and once a day. The food and water intake were measured with an analytical electronic balance.
# Bodyweight was weighed every day.
# If time permitted, tail vein blood (30-50 μL) was collected every 1-3 days.
# (§2) 24 hours after the time point of the last injection, end point maxillary surface blood sampling was performed on each mouse. All mice were Euthanized by cervical dislocation, and then tissue sample (e.g., liver samples) were obtained and stored in Eppendorf tubes at −80° C. for assay.
# (§3) 12 days after initiation of administration, each mouse was scanned by a minispec nuclear magnetic resonance (NMR) instrument (Bruker LF50 II “Minispec” body composition analyzer, Bruker Optics) that was designed for experimental animals, and based on the measurement of solid and liquid parts of the samples, the body fat and lean body weight were determined by this device.
# (§4) Serum: Tail vein blood samples (30-50 μL) were left to coagulate in […] blood collection tubes (Jiangsu Kangjian Medical Products Co., Ltd., model KJ002) at room temperature without interference, and then centrifuged at 2,000×g for 10 minutes at 4° C. to remove the clot. Supernatant was collected to obtain the serum.
# (§5) Liver: Liver samples were obtained as described in (2). 100 mg of liver tissue was homogenized in 0.9 mL of absolute alcohol under ice-cold conditions, and then centrifuged (2,500 r.p.m/min, 10 min). Supernatant was collected, and then stored at −80° C.
# (§6) The kits were used according to the instruction from manufacturer (TAG: TG kit, cat. no. A110-1-1; TC: T-CHO kit, cat. no. A111-1. FFA: NEFA kit, cat. No. A042-2-1; they were all from Nanjing Jiancheng Bioengineering Institute). TAG, TC and FFA levels in serum and liver samples were determined.
# According to the lipidomic method as described above, the contents of liver total lipid, glycerolipid, sterol lipid, neutral sphingolipid and polar lipid were analyzed. The log 2-fold change (log2 FC) and statistical significance (p-value) relative to the DMSO group were calculated.
# [1] = tested on: autophagosome-lipid droplet colocalization in MEF cells; experiment: Colocalization of autophagosome and lipid droplets in mCherry-LC3B transfected MEF cells; type: cell-based, mouse; settings: 5 μM, 3 h, compared to DMSO control
# Description: (1) In MEF cells, mCherry-LC3B was expressed by cDNA plasmid transfection.
# (2) OA was added to the culture medium 30 hours after transfection to induce lipid droplets.
# (3) Compounds were added to treat cells 6 hours after induction.
# (4) 3 hours after compounds addition, cells were fixed and BODIPY stained.
# (5) The coverslips laid in the multi-well plates were removed, and imaged with the Zeiss 880 confocal microscope after mounted to observe the aggregation of LC3 puncta around the lipid droplets.
# In MEF cells, mCherry-LC3B was expressed by cDNA plasmid transfection. At 30th hour of overexpression, OA was added into cells for lipid droplet induction. 6 hours later, the compound was added for 3 hours' treatment, and then cells were subjected to immunostaining. […] Lipid droplets (green) were stained with BODIPY stain, and nucleus were indicated with DAPI stain. […] In FIG. 24, the colocalized autophagosome-lipid droplet was marked with circles.
# [2] = tested on: lipid droplets in 3T3-L1 fat precursor cell differentiated fat cells; experiment: Lipid droplets in 3T3-L1 fat precursor cell differentiated fat cells; type: cell-based, mouse; settings: 3T3-L1 differentiated fat cells, 24 h
# NASH mice = experiment: Effect of the compound on NASH mouse model (CDAHFD); type: in vivo
# Description: 15-micrometer cryosections were obtained from the liver (see “BODIPY staining of tissues” and processed for visualization of fibrosis by picro-sirius red staining as described in the literature (Sookoian S et al., Fatty Liver Disease Progresses into Severe NASH when Physiological Mechanisms of Tissue Homeostasis Collapse. Ann Hepatol 2018; 17:182-186.). The liver cryosections were washed with 1×PBS and then incubated at room temperature for 1 hour with the solution containing 0.1% vol/vol Direct Red 80 Direct Red 80 (for staining collagen in red as an indicator for liver fibrosis) and 0.04% Fast Green (Sigma-Aldrich, cat. no. F7258, for general protein staining as a background) in saturated aqueous solution of picric acid (Sigma., cat. no. P6744-1GA). The samples were imaged by using an Olympus inverted fluorescence microscope IX73, and the histological fibrosis images were analyzed by the imageJ software.
# Experimental animals: ten-week-old C57BL/6 male mice were obtained from Hangzhou Ziyuan Inc. The mice had ad libitum access to water and a choline-deficient, L-amino acid-defined, high-fat diet (CDAHFD) containing 60% kcal fat obtained from Changzhou Shuyishuer Inc. for twelve weeks (including the two-week compound-injection period) to generate the non-alcoholic steatohepatitis (NASH) models.
# as §1, §2, §3, §4, §5, §6
# [3] = tested on: lipid droplets in LC3B knockout HEK293T cells; experiment: Lipid droplets in LC3B knockout HEK293T cells; type: cell-based, human; settings: 5 μM
# Description: The effect of conjugated compounds (Compound 1A, Compound 2A, Compound 3A or Compound 4A at a concentration of 5 μM) on lipid droplets in LC3B knockout HEK293T cells was tested by a method similar to Example 2.
# LC3B = LC3B (Homo sapiens, UniProt Q9GZQ8); experiment: MST detection of affinity activity with LC3B; type: binding; set-up: His8 (with TEV site) (N); made in house; host or cells: Escherichia coli BL21(DE3)pLysS; settings: MST; read-out: Kd (μM), equilibrium dissociation constant between the conjugated compound and LC3B
# Description: The recombinant GST-LC3B proteins were prepared and purified, dialyzed into 1×PBS, and then labelled with the red fluorophore with the protein labeling kit RED-NHS (Nanotemper, cat. no. L001).
# The MST experiments were performed using the Monolith NT.115 instrument (NanoTemper Technologies). The reaction buffer contains 20 mM HEPES, pH 7.4, 150 mM NaCl, and the protein concentration was 500 nM. The MST data were collected under 40% infrared laser power and 20% light-emitting diode power. The data were analyzed by Nanotemper software.
smiles,measurement,setting,value
"O=c1cc(-c2ccccc2)c2c(OCCCCCCCCCCOc3ccc4ccccc4c3/N=N/c3ccc(/N=N/c4ccccc4)cc3)cc(O)cc2o1 [Compound 4A, 7-hydroxy-4-phenyl-5-((10-((1-((E)-(4-((E)-phenyldiazenyl)phenyl)diazenyl)naphthalen-2-yl)oxy)decyl)oxy)-2H-chromen-2-one]",body weight-normalized food intake,db/db mice,marginally significant increase
same,FFA levels in serum and liver,db/db mice; 30 mg/kg ip,significantly reduced
same,body weight-normalized food and water intake,db/db mice; 30 mg/kg ip,no significant reduction
same,weight loss (total body weight),"db/db mice; 30 mg/kg ip once a day, within 2 weeks",about 15%
same,ratio of body fat/lean body weight,"db/db mice; 30 mg/kg ip, 12 days, vs DMSO group",significantly reduced
same,amount and size of liver lipid droplets (BODIPY493/503),"db/db mice; 30 mg/kg ip, 14 days",significantly reduced
same,liver weight,"db/db mice; 30 mg/kg ip, 14 days, vs DMSO group",significantly reduced
same,TAG levels in liver and serum,"db/db mice; 30 mg/kg ip, vs DMSO group",significantly reduced
same,TC levels in liver and serum,"db/db mice; 30 mg/kg ip, vs DMSO group",significantly reduced
same,reduction of liver total lipid concentration (liver lipid level),"db/db mice; absolute quantitative lipidomics, vs DMSO group",41.5±13.9%
same,TAG in liver,db/db mice; lipidomics,significantly reduced
same,"most glycerolipids, sterol lipids and neutral sphingolipids in liver",db/db mice; lipidomics,reduced
same,"other major neutral lipids, cholesteryl ester (ChE) and diglyceride (DG) in liver",db/db mice; lipidomics,slightly reduced
same,"polar lipids, e.g., glycerophospholipids in liver",db/db mice; lipidomics,did not reduce
same,PE and PI,db/db mice; liver lipidomics,unaffected
same,TAG and ChE with different chain carbon numbers or saturated bond numbers,db/db mice; liver lipidomics,all reduced
same,ratio of colocalization of red and green aggregation point (autophagosome-lipid droplet),[1],significantly increased
same,effect of the compound on lipid droplets under the treatment of NH4Cl,[2]; 5 μM + NH4Cl 5 mM,blocked
same,amount of lipid droplets,[2]; 5 μM,could reduce
same,size of lipid droplets,[2]; 5 μM,could change
same,liver weight,NASH mice; 30 mg/kg ip,significantly reduced
same,ratio of body fat/lean body weight,NASH mice; 30 mg/kg ip,significantly reduced
same,serum and liver TAG levels,NASH mice; 30 mg/kg ip,reduced
same,serum and liver TC levels,NASH mice; 30 mg/kg ip,reduced
same,body weight,"NASH mice; 30 mg/kg ip once a day, 2 weeks",significantly reduced
same,liver lipid droplets,"NASH mice; 30 mg/kg ip, 14 days",significantly reduced
same,degree of interstitial fibrosis in liver tissue (picro-sirius staining),"NASH mice; 30 mg/kg ip, 14 days, compared with control compound",significantly reduced
same,reduction of lipid droplets induced by conjugated compounds after knockout of LC3B gene,[3],largely blocked
same,Kd,LC3B,0.39 µM
